Where two headings read alike, the source gives them in different places.
Key:
[1] = target: T1, Human Prostatic 5α-Reductase (Homo sapiens, UniProt P31213); test: Inhibition of human prostatic 5α-reductase (prostatic microsomes, [3H]testosterone); conditions: for inhibition at 0.1 µM: read-out: % Inhibition of 5α-reductase, [I] 100 nM; for inhibition at 0.4 µM: read-out: % Inhibition of 5α-reductase, [I] 400 nM; for inhibition at 0.01 µM: read-out: % Inhibition of 5α-reductase, [I] 10 nM
T1 sequence (P31213 1-254): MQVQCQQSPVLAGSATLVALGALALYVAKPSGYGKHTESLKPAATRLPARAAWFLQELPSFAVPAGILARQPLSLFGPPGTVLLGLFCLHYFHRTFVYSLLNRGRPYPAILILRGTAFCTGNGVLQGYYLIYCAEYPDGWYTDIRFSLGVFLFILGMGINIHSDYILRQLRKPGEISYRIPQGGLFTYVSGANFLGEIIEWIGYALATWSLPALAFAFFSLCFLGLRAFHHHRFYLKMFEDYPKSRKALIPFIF
Protocol: The 5α-reductase assay is performed by incubating human prostatic microsomes (approx. 0.6 mg protein in 0.5 ml phosphate buffer) with [7-^3 H]testosterone (10 mM. 6×10^5 dpm) with a NADPH generating system (NADP 0.65 mM; glucose-6-phosphate 7.1 mM; glucose-6-phosphate dehydrogenase 2.5 IU in 100 μl phosphate buffer) and candidate inhibitors at concentrations of 10 nM and 100 nM under oxygen for 30 min at 37° C. […] The steroids are extracted with ether and separated by chromatography on TLC (chloroform:ether 80:20). […] The steroids are scraped from the plate and radioactivity measured.

[2] = target: T2, Human Testicular 17α-Hydroxylase (Homo sapiens, UniProt P05093); test: Inhibition of human testicular 17α-hydroxylase (pregnenolone substrate, testicular microsomes); assay type: biochemical; conditions: for inhibition at 0.1 µM: read-out: % Inhibition 17α-hydroxylase, [I] = 100 nM; for inhibition at 0.4 µM: read-out: % Inhibition 17α-hydroxylase, [I] = 400 nM
T2 construct: incubating human testicular microsomes; from tissue; host or cells: human testis, microsomes
T2 sequence (P05093 1-508): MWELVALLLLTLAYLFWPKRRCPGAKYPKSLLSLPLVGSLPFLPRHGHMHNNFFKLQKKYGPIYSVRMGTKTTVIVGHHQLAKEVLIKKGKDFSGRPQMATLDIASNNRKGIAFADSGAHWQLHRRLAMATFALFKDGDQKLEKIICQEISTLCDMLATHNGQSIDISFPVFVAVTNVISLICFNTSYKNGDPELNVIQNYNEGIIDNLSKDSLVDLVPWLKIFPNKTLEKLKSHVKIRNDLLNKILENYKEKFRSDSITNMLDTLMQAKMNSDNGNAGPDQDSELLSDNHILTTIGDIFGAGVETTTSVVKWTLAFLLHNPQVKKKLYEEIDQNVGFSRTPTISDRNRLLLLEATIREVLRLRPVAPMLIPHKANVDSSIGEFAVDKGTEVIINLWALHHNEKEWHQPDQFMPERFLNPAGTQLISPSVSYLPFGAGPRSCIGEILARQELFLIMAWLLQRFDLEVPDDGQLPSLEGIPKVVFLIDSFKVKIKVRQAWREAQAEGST
Protocol: (§1) The conversion of radiolabeled pregnenolone to 17α-hydroxypregnenolone and DHEA by 17α-hydroxylase/C17,20 -lyase was measured by incubating human testicular microsomes with different concentration of test compounds. Reverse phase HPLC was used to separate and accurately quantify the amount of substrate and metabolites. The 17α-hydroxylase and C17,20 -lyase activities were calculated separately. The activity of 17α-hydroxylase was calculated from the conversion of pregnenolone to 17α-hydroxypregnenolone and DHEA and the activity of C17,20 -lyase was based on the conversion of pregnenolone to DHEA. Although 17α-hydroxypregnenolone is the substrate converted to DHEA by C17,20 -lyase, it has been reported that this 17α-hydroxy intermediate is not released from the enzyme binding site during conversion (Nakajin et al., 1981a,b). Also, there are species differences in substrate requirements. Pregnenolone is the natural substrate rather than progesterone for human testicular 17α-hydroxylase and C17,20 -lyase. Therefore, pregnenolone was used as substrate for measuring the activity of this enzyme complex.

[3] = target: T3, Human Testicular C17,20-lyase (Homo sapiens, UniProt P05093); test: Inhibition of human testicular C17,20-lyase (pregnenolone substrate, testicular microsomes); assay type: biochemical; conditions: for inhibition at 0.1 µM: read-out: % Inhibition C17,20-lyase, [I] = 100 nM; for inhibition at 0.4 µM: read-out: % Inhibition C17,20-lyase, [I] = 400 nM
T3 construct: incubating human testicular microsomes; from tissue; host or cells: human testis, microsomes
T3 sequence (P05093 1-508): T2 sequence (P05093 1-508)
Protocol: as §1

[4] = target: T4, human 17α-hydroxylase/C17,20-lyase (Homo sapiens, UniProt P05093); test: Inhibition of human testicular 17α-hydroxylase/C17,20-lyase (enzyme complex as a whole); assay type: biochemical; conditions: NI = no inhibition
T4 construct: incubating human testicular microsomes; from tissue; host or cells: human testis, microsomes
T4 sequence (P05093 1-508): T2 sequence (P05093 1-508)
Protocol: as §1

[5] = Table 1, NI = no inhibition, read-out: IC50 17α-OHase
[6] = Table 1, NI = no inhibition, CI = complete inhibition, read-out: IC50 C17,20 lyase

Work on C[C@]12CC[C@H]3[C@@H](CC[C@]45CC(=O)CC[C@]34[C@H]5O)[C@@H]1CC[C@@H]2O [Compound L-19, 17β,19(S)-dihydroxy 5,19β-cycloandrost-3-one] yielded an inhibition at 0.1 µM [1] of 8.7% and an inhibition at 0.4 µM [1] of 14.8%.
In the case of CC1N[C@]12CC[C@H]1[C@@H]3CC=C4C[C@@H](O)CC[C@]4(C)[C@H]3CC[C@@]12C (stereo partly drawn) [Compound L-22], the inhibition at 0.1 µM [2] is reported as 0%, the inhibition at 0.4 µM [2] is reported as 0% and the inhibition at 0.1 µM [3] is reported as 3.33%. It also gave an inhibition at 0.4 µM [3] of 9.99%.
C[C@H](C=O)[C@H]1CC[C@H]2[C@@H]3CC=C4C[C@@H](O)CC[C@]4(C)[C@H]3CC[C@]12C [Compound I-31] was tested, and the IC50 [2, 5] was 80 nM and the IC50 [3, 6] was 80 nM.
For C[C@H](C=NN(C)C)[C@H]1CC[C@H]2[C@@H]3CCC4=CC(=O)CC[C@]4(C)[C@H]3CC[C@]12C [Compound I-15], the inhibition at 0.01 µM [1] was 16.4%, the inhibition at 0.1 µM [1] was 74.9% and the “inhibition of 17α-hydroxylase/C17,20-lyase (in words)” value [4] was “devoid of inhibitory activity”.
Work on C[C@]12CC[C@H]3[C@@H](CCC4=CC(=O)CC[C@@]43C)[C@@H]1CC[C@@H]2c1ncc[nH]1 [Compound L-3] yielded an inhibition at 0.1 µM ([2]; 100 nM, first figure of pair) of 20.3%, an inhibition at 0.4 µM ([2]; 400 nM, first figure of pair) of 43.5% and an inhibition at 0.1 µM [1] of 31.7%. For the same compound, the inhibition at 0.4 µM [1] was 61.7%, the inhibition at 0.1 µM ([3]; 100 nM, second figure of pair) was 62.9% and the inhibition at 0.4 µM ([3]; 400 nM, second figure of pair) was 100%.
In the case of CC1N[C@@]12CC[C@H]1[C@@H]3CC=C4C[C@@H](O)CC[C@]4(C)[C@H]3CC[C@@]12C (stereo partly drawn) [Compound L-21], the inhibition at 0.1 µM [2] is reported as 8.47%, the inhibition at 0.4 µM [2] is reported as 23.7% and the inhibition at 0.1 µM [3] is reported as 29.1%. For the same compound, the inhibition at 0.4 µM [3] was 52%.
In the case of C[C@]12CC[C@H]3[C@@H](CC[C@]45CC(=O)CC[C@]34[C@@H]5O)[C@@H]1CCC2=O [Compound L-20, 19(R)-Hydroxy-5,19β-cyclo-androst-3,17-dione], the inhibition at 0.1 µM [1] is reported as 5.89% and the inhibition at 0.4 µM [1] is reported as 12.2%.
Compound C[C@]12CC[C@H](O)CC1=CC[C@@H]1[C@@H]2CC[C@@]2(C)[C@H]1C[C@H]1O[C@]12c1c[nH]cn1 [Compound I-51] has an IC50 [2, 5] of 430 nM, an IC50 ([2]; first figure of pair, read-out: IC50 17α-hydroxylase) of 431 nM and an IC50 [3, 6] of 100 nM. It also gave an IC50 ([3]; second figure of pair, read-out: IC50 C17,20-lyase) of 98 nM.
In the case of CC(C#N)=C1CC[C@H]2[C@@H]3CCC4=CC(=O)CC[C@]4(C)[C@H]3CC[C@]12C [Compound I-26], the inhibition at 0.01 µM [1] is reported as 5.21%, the inhibition at 0.1 µM [1] is reported as 71.8% and the “inhibition of 17α-hydroxylase/C17,20-lyase (in words)” value [4] is reported as “did not contribute to inhibition”.
With C[C@]12CC[C@H]3[C@@H](CCC4=CC(=O)CC[C@@]43CBr)[C@@H]1CCC2=O [Compound L-24, 19-Bromo-androst-4-ene-3,17-dione] the inhibition at 0.1 µM [1] was 12.3% and the inhibition at 0.4 µM [1] was 52.7%.
CC(=NO)[C@H]1CC[C@H]2[C@@H]3CC=C4C[C@@H](O)CC[C@]4(C)[C@H]3CC[C@]12C [Compound I-1] was tested, and the “inhibition of 17α-hydroxylase/C17,20-lyase (in words)” value [4] was “potent inhibition”.
Work on C[C@H](C#N)[C@H]1CC[C@H]2[C@@H]3CCC4=CC(=O)CC[C@]4(C)[C@H]3CC[C@]12C [Compound I-32] yielded an inhibition at 0.01 µM [1] of 21% and an inhibition at 0.1 µM [1] of 79.2%.
Work on CCOC(=O)C1=CC[C@H]2[C@@H]3CC=C4C[C@@H](O)CC[C@]4(C)[C@H]3CC[C@]12C [Compound I-53] yielded an IC50 [2, 5] of 3040 nM and an IC50 [3, 6] of 2450 nM.
With C[C@H](O)[C@H]1CC[C@H]2[C@@H]3CC=C4C[C@@H](O)CC[C@]4(C)[C@H]3CC[C@]12C [Compound I-19] the IC50 ([2]; IC50 17α-OHase) was 720 nM, the “inhibition of 5α-reductase (in words)” value ([1]; NI = no inhibition) was “neither showed activity against 5α-reductase” and the IC50 ([3]; IC50 C17,20 lyase) was 510 nM.
